Assays:
[1] = biological target: Calcium/calmodulin-dependent protein kinase type II subunit alpha (Homo sapiens) (UniProt Q9UQM7); conditions: Compound concentration 1000.0 nM
[2] = biological target: Mitogen-activated protein kinase kinase kinase 7 (Homo sapiens) (UniProt O43318); conditions: Compound concentration 1000.0 nM
[3] = biological target: Casein kinase I isoform gamma-1 (Homo sapiens) (UniProt Q9HCP0); conditions: Compound concentration 1000.0 nM
[4] = biological target: BMP-2-inducible protein kinase (Homo sapiens) (UniProt Q9NSY1); conditions: Compound concentration 1000.0 nM
[5] = biological target: T1, Alpha-1B adrenergic receptor (Homo sapiens) (UniProt P35368); assay: alpha 1B (h) CEREP ligand profiling; conditions: filed as antagonist, Compound concentration 10.0 uM
T1 sequence (whole entry): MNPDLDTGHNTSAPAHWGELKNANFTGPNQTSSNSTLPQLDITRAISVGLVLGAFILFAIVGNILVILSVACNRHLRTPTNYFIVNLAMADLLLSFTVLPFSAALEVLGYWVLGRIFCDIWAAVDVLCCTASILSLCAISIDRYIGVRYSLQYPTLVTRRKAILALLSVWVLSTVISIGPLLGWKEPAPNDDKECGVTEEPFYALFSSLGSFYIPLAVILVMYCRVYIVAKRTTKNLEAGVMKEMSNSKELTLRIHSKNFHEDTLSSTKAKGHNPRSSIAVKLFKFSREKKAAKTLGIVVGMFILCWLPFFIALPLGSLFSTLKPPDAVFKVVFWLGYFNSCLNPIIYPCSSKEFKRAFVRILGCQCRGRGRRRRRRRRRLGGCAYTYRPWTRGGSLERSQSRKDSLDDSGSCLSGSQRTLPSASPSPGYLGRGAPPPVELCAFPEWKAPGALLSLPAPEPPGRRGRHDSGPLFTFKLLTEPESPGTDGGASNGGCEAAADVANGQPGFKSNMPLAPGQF

[6] = biological target: Ephrin type-B receptor 1 (Homo sapiens) (UniProt P54762); conditions: Compound concentration 1000.0 nM
[7] = test system: Tyrosine-protein kinase ABL1 (Homo sapiens), P00519 [Q252H]; conditions: Compound concentration 1000.0 nM
[8] = biological target: Alpha-2C adrenergic receptor (Homo sapiens) (UniProt P18825); conditions: Compound concentration 10.0 uM
[9] = biological target: Mitogen-activated protein kinase 13 (Homo sapiens) (UniProt O15264); conditions: Compound concentration 1000.0 nM
[10] = biological target: Homeodomain-interacting protein kinase 4 (Homo sapiens) (UniProt Q8NE63); conditions: Compound concentration 1000.0 nM
Sequence of Homeodomain-interacting protein kinase 4 (Homo sapiens) (Q8NE63 whole entry): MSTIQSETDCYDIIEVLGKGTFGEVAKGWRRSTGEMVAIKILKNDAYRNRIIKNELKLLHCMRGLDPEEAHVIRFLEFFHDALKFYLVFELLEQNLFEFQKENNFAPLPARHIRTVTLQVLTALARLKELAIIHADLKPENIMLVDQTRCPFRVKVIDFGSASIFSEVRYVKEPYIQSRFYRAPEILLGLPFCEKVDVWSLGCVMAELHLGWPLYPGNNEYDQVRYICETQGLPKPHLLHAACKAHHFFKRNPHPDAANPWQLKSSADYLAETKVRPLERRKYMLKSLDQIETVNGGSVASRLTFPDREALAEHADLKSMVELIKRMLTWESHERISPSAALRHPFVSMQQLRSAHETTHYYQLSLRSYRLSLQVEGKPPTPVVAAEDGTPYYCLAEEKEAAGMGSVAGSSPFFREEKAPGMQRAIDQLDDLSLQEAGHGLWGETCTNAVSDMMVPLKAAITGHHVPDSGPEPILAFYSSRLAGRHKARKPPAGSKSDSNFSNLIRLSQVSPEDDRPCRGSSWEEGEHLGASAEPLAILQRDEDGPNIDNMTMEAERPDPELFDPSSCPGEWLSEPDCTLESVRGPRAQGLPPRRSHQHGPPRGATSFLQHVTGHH

[11] = biological target: Ribosomal protein S6 kinase alpha-1 (Homo sapiens) (UniProt Q15418); conditions: Compound concentration 1000.0 nM
Sequence of Ribosomal protein S6 kinase alpha-1 (Homo sapiens) (Q15418 whole entry): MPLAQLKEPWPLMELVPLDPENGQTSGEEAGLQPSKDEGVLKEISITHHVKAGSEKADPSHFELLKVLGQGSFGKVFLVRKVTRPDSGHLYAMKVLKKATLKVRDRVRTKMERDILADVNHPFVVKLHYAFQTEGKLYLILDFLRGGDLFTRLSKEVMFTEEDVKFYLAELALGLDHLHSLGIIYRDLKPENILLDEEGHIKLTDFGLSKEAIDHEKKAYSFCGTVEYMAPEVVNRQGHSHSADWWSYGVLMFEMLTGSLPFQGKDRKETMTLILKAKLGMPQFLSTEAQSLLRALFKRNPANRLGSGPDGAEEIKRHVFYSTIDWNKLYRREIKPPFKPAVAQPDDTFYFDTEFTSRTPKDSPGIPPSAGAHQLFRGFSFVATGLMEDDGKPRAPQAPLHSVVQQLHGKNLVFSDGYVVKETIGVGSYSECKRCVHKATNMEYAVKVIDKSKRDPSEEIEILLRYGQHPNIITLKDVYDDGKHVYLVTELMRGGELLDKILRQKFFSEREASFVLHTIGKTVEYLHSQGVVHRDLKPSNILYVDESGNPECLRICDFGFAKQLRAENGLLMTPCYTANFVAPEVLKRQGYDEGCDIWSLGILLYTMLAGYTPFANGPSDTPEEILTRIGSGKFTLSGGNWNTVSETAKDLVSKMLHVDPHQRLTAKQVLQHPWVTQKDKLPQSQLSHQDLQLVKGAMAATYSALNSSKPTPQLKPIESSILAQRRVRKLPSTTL

[12] = biological target: Ribosomal protein S6 kinase alpha-5 (Homo sapiens) (UniProt O75582); conditions: Compound concentration 1000.0 nM
[13] = biological target: Mitogen-activated protein kinase kinase kinase kinase 5 (Homo sapiens) (UniProt Q9Y4K4); conditions: Compound concentration 1000.0 nM
[14] = biological target: Casein kinase I isoform epsilon (Homo sapiens) (UniProt P49674); conditions: Compound concentration 1000.0 nM
[15] = test system: Mast/stem cell growth factor receptor Kit (Homo sapiens), P10721 [V559D,V654A]; conditions: Compound concentration 1000.0 nM
[16] = biological target: Dual specificity mitogen-activated protein kinase kinase 2 (Homo sapiens) (UniProt P36507); conditions: Compound concentration 1000.0 nM
Sequence of Dual specificity mitogen-activated protein kinase kinase 2 (Homo sapiens) (P36507 whole entry): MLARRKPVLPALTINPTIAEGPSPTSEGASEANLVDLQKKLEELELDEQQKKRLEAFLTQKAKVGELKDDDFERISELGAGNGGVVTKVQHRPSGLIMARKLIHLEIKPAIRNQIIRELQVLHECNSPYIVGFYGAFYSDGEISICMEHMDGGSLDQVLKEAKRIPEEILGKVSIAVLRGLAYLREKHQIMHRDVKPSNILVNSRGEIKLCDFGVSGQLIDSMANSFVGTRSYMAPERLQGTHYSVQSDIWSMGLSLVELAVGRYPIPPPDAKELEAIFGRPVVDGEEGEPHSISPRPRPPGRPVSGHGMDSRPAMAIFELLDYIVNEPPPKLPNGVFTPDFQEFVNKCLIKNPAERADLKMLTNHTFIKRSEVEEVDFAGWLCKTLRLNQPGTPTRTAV

[17] = biological target: Mitogen-activated protein kinase kinase kinase 10 (Homo sapiens) (UniProt Q02779); conditions: Compound concentration 1000.0 nM
[18] = biological target: Mu-type opioid receptor (Homo sapiens) (UniProt P35372); assay: mu (MOP) (h) CEREP ligand profiling; conditions: filed as agonist, Compound concentration 10.0 uM
[19] = biological target: Serine/threonine-protein kinase LATS2 (Homo sapiens) (UniProt Q9NRM7); conditions: Compound concentration 1000.0 nM
[20] = biological target: Ribosomal protein S6 kinase alpha-4 (Homo sapiens) (UniProt O75676); conditions: Compound concentration 1000.0 nM
Sequence of Ribosomal protein S6 kinase alpha-4 (Homo sapiens) (O75676 whole entry, looked up, the tested form may be a part): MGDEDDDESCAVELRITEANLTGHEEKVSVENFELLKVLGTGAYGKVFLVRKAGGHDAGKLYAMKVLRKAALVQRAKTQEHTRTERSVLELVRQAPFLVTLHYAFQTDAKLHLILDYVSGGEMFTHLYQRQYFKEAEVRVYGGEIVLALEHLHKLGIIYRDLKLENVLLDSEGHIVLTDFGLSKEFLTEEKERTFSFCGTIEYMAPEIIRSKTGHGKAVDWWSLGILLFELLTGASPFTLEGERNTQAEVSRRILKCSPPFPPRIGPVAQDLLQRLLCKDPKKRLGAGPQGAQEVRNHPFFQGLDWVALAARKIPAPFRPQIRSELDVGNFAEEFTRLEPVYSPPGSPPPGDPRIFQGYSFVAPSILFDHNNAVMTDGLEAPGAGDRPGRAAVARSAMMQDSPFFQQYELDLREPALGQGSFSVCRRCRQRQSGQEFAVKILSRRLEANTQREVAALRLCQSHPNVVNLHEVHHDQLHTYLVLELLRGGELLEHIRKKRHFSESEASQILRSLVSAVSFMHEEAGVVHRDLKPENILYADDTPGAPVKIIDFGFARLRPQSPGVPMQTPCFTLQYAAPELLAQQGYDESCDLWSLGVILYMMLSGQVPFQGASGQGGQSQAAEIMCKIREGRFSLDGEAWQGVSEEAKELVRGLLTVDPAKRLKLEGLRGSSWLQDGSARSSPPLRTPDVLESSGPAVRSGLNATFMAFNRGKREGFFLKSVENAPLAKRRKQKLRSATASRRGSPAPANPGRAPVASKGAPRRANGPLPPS

[21] = biological target: Ankyrin repeat and protein kinase domain-containing protein 1 (Homo sapiens) (UniProt Q8NFD2); conditions: Compound concentration 1000.0 nM
Sequence of Ankyrin repeat and protein kinase domain-containing protein 1 (Homo sapiens) (Q8NFD2 whole entry, the tested form may be a part): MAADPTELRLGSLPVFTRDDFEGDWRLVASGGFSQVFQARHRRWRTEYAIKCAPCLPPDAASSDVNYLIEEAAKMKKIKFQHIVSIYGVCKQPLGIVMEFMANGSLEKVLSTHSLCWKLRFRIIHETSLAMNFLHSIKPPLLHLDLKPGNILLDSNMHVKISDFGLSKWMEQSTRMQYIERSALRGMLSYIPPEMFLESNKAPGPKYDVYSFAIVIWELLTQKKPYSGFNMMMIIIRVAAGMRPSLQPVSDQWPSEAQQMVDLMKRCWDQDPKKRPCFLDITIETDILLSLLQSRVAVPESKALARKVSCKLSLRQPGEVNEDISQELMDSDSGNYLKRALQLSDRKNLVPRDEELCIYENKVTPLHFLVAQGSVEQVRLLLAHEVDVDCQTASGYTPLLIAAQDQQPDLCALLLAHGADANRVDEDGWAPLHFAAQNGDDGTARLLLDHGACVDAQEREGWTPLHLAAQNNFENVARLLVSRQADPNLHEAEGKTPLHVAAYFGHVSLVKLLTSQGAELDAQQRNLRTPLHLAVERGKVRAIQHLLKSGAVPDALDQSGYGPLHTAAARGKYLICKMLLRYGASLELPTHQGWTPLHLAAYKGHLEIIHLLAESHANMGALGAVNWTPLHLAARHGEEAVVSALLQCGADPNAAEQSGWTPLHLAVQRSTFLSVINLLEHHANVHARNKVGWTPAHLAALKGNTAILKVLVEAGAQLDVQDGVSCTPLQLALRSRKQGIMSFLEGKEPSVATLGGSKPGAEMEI

[22] = biological target: GABA-A receptor; anion channel (Rattus norvegicus) (UniProt O09028+P15431+P18506+P18508+P19969+P20236+P23574+P23576+P28471+P28473+P30191+P62813+P63079+P63138+Q91ZM7+Q9ES14); conditions: Compound concentration 10.0 uM
[23] = biological target: Muscarinic acetylcholine receptor M3 (Homo sapiens) (UniProt P20309); conditions: Compound concentration 10.0 uM
[24] = biological target: Phosphatidylinositol 3-kinase catalytic subunit type 3 (Homo sapiens) (UniProt Q8NEB9); conditions: Compound concentration 1000.0 nM
[25] = biological target: Serine/threonine-protein kinase BRSK1 (Homo sapiens) (UniProt Q8TDC3); conditions: Compound concentration 1000.0 nM
[26] = test system: Phosphatidylinositol 4,5-bisphosphate 3-kinase catalytic subunit alpha isoform (Homo sapiens), P42336 [M1043I]; conditions: Compound concentration 1000.0 nM
[27] = biological target: Platelet-derived growth factor receptor beta (Homo sapiens) (UniProt P09619); conditions: Compound concentration 1000.0 nM
[28] = test system: Tyrosine-protein kinase ABL1 (Homo sapiens), P00519 [T315I]; conditions: Compound concentration 1000.0 nM
[29] = biological target: Protein kinase C theta type (Homo sapiens) (UniProt Q04759); conditions: Compound concentration 1000.0 nM
Sequence of Protein kinase C theta type (Homo sapiens) (Q04759 whole entry, looked up): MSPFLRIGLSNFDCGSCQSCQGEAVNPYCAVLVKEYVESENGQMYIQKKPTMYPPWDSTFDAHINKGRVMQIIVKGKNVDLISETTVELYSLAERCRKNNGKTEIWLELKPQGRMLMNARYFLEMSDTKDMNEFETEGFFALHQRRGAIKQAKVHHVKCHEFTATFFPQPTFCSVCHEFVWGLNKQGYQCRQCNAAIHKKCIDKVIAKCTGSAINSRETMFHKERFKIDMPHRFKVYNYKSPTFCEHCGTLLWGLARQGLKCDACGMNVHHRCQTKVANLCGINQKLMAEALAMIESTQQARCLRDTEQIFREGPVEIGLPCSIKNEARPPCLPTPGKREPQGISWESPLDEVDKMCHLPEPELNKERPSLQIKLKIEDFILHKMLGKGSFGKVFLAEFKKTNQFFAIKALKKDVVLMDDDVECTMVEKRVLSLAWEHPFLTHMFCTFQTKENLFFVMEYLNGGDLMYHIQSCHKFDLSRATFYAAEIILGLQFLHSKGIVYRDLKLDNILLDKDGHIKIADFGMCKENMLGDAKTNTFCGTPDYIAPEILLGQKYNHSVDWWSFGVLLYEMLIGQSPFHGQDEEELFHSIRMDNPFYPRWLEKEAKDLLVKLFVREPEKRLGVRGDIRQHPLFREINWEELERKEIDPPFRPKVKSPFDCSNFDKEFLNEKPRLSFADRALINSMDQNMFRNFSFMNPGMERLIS

[30] = biological target: Hepatocyte growth factor receptor (Homo sapiens) (UniProt P08581); conditions: Compound concentration 1000.0 nM

Sequence of Calcium/calmodulin-dependent protein kinase type II subunit alpha (Homo sapiens) (Q9UQM7 whole entry): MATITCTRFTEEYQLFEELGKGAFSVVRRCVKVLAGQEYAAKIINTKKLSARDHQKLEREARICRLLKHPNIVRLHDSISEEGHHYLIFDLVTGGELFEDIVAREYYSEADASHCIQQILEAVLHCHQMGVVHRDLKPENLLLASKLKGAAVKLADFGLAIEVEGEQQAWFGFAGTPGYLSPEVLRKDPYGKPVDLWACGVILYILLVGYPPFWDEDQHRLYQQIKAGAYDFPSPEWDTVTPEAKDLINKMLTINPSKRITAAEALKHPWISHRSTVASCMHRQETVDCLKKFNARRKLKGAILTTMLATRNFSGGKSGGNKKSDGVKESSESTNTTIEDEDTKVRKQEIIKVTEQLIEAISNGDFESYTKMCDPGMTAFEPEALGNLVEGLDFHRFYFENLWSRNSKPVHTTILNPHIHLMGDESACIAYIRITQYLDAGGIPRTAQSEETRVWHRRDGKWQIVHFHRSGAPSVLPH
Sequence of Casein kinase I isoform gamma-1 (Homo sapiens) (Q9HCP0 whole entry, looked up, canonical isoform): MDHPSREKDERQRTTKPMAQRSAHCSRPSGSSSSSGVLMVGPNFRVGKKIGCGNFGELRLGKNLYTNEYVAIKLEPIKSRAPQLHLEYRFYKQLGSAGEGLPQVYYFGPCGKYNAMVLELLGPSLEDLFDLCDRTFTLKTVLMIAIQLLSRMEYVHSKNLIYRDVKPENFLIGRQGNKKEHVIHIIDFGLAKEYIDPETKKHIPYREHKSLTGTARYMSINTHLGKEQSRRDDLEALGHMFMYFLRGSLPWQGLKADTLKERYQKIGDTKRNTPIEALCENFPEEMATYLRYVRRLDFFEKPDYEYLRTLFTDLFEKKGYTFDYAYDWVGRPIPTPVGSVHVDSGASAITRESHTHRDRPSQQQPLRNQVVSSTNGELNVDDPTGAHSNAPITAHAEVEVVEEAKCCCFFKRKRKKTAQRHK

| SMILES | residual activity [1] [%] | residual activity [2] [%] | residual activity [3] [%] | residual activity [4] [%] | inhibition [5] [%] | residual activity [6] [%] | residual activity [7] [%] | inhibition [8] [%] | residual activity [9] [%] | residual activity [10] [%] | residual activity [11] [%] | residual activity [12] [%] | residual activity [13] [%] | residual activity [14] [%] | residual activity [15] [%] | residual activity [16] [%] | residual activity [17] [%] | inhibition [18] [%] | residual activity [19] [%] | residual activity [20] [%] | other results |
| --- | --- | --- | --- | --- | --- | --- | --- | --- | --- | --- | --- | --- | --- | --- | --- | --- | --- | --- | --- | --- | --- |
| CNC(=O)Nc1ccc2c(c1)CC[C@@]21OC(=O)N(CC(=O)N(Cc2ccc(F)cc2)[C@@H](C)C(F)(F)F)C1=O [A-485] | 91 | 77 | 94 | 98 | 4 | 97 | 81 | 20.7 | 83 | 97 | 86 | 63 | 88 | 80 | 90 | 96 | 57 | 12 | 47 | 72 | residual activity [21]: 81%; inhibition [22]: 8.97%; inhibition [23]: 9.06%; residual activity [24]: 88%; residual activity [25]: 97%; residual activity [26]: 100%; residual activity [27]: 100%; residual activity [28]: 78%; residual activity [29]: 71%; residual activity [30]: 88% |
| CNC(=O)Nc1ccc2c(c1)[C@@]1(CC2)OC(=O)N(CC(=O)N(Cc2ccc(F)cc2)[C@@H](C)C(F)(F)F)C1=O [A-486] | 100 | 81 | 78 | 100 | -6 | 100 | 97 | 8.88 | 97 | 100 | 96 | 72 | 100 | 80 | 83 | 99 | 73 | 7 | 68 | 88 | residual activity [21]: 61%; inhibition [22]: 9.54%; inhibition [23]: 8.23%; residual activity [24]: 96%; residual activity [25]: 100%; residual activity [26]: 100%; residual activity [27]: 87%; residual activity [28]: 86%; residual activity [29]: 89%; residual activity [30]: 100% |

From ChEMBL document CHEMBL4507259 (2021)
